Data as given in patent US12569566B2, “Compositions containing, methods and uses of antibody-TLR agonist conjugates” (Ambrx, Inc., priority 2019, dated 2026).
pEC50: −log10 of the molar value. Like-named read-outs stand apart in the source and are kept apart here.

Molecular target: T1, hTLR7 (Homo sapiens, UniProt Q9NYK1)
T1 construct: host or cells: HEK-Blue hTLR7 (HEK293-derived reporter cell line)
T1 sequence (Q9NYK1 27-1049): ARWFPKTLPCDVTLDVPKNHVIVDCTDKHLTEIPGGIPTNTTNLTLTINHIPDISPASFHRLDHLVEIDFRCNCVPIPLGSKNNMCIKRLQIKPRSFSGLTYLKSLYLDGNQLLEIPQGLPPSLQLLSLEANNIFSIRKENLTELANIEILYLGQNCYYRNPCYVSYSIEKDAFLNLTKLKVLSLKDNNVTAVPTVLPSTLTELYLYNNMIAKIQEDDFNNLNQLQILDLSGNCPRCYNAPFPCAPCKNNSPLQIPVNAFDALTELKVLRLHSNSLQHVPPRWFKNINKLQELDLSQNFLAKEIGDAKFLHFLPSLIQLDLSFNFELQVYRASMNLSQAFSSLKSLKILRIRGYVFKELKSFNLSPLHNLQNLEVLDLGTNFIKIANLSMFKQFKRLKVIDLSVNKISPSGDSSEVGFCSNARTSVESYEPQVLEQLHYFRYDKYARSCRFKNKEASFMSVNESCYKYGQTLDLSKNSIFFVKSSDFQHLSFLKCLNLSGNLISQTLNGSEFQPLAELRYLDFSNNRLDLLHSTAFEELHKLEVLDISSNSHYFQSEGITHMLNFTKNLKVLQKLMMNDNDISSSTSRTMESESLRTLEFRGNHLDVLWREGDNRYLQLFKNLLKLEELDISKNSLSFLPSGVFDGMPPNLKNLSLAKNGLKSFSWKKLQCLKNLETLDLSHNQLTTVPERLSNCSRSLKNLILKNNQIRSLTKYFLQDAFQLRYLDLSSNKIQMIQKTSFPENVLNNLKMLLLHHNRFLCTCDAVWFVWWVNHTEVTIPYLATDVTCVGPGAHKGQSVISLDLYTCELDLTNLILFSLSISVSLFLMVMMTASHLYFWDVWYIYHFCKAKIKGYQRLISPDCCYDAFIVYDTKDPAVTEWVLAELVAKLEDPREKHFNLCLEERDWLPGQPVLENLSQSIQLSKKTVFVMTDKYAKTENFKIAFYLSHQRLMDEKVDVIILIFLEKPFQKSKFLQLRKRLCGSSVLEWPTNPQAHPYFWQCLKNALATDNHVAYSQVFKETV
Assay: HEK-Blue hTLR7 reporter assay (NF-kB-induced SEAP, Quanti-Blue, OD 655 nm)
Type: cell-based
Conditions: for TLR7 activity / potency stated in words: FIGS. 6-9
Experimental: HEK-Blue™ hTLR7 cells were incubated in HEK-Blue™ Detection medium and stimulated with increasing concentrations of TLR7 or TLR8 or TLR7/8 agonists. […] The EC50 was determined from dose-response curve using Prism Software.

[1] = Table 14, FIG. 8, (DL) = drug linker, read-out: TLR7 EC50
[2] = text to FIG. 5B and FIG. 8, read-out: EC50 values (TLR7)

Structure (SMILES)	TLR7 activity / potency stated in words	pEC50 [1]	further results
CCOCc1nc2c(N)nc3ccccc3c2n1CCCCNC(=O)c1ccc(N)c(OC)c1 [AXC-807]	–	–	pEC50 (Table 10, FIG. 5A, 24 h, read-out: TLR7 EC50): 6.38
CCCCNc1nc(N)c2[nH]c(=O)n(Cc3ccc(NCCN(C)CCNC(=O)CON)nc3)c2n1 [AXC-868, N-(2-((2-(5-((6-amino-2-(butylamino)-8-oxo-7H-purin-9(8H)-yl)methyl)pyridin-2-ylamino)ethyl)(methyl)amino)ethyl)-2-(aminooxy)acetamide]	–	–	pEC50 (Table 12, FIG. 6, TLR7 agonists attached to a linker, read-out: TLR Agonist Payload + Linkers EC50): < 5.30
CCCCOc1nc(N)c2[nH]c(=O)n(Cc3ccc(CN4CCC(CCNC(=O)CON)CC4)cc3)c2n1 [AXC-879, N-(2-(1-(4-((6-amino-2-butoxy-8-oxo-7H-purin-9(8H)-yl)methyl)benzyl)piperidin-4-yl)ethyl)-2-(aminooxy)acetamide]	highest potency	–	–
CCCCOc1nc(N)c2[nH]c(=O)n(Cc3ccc(CN4CCC(CCNC(=O)c5ccc(N)c(OC)c5)CC4)cc3)c2n1 [AXC-895, 4-amino-N-(2-(1-(4-((6-amino-2-butoxy-8-oxo-7H-purin-9(8H)-yl)methyl)benzyl)piperidin-4-yl)ethyl)-3-methoxybenzamide]	highest potency	–	–
CCCCOc1nc(N)c2[nH]c(=O)n(Cc3ccc(CN4CCC(C5CCN(C(=O)CON)CC5)CC4)cc3)c2n1 [AXC-901, 6-amino-9-(4-((1′-(2-(aminooxy)acetyl)-4,4′-bipiperidin-1-yl)methyl)benzyl)-2-butoxy-7H-purin-8(9H)-one]	highest potency	–	–
CCCCOc1nc(N)c2[nH]c(=O)n(Cc3ccc(CN4CCC(CCNC(=O)c5cccc(N)c5)CC4)cc3)c2n1 [AXC-903, 3-amino-N-(2-(1-(4-((6-amino-2-butoxy-8-oxo-7,8-dihydro-9H-purin-9-yl)methyl)benzyl)piperidin-4-yl)ethyl)benzamide]	–	8.37	pEC50 [2]: > 8.00
CCCCOc1nc(N)c2[nH]c(=O)n(Cc3ccc(CN4CCC(CCNC(=O)c5ccc(CCN)cc5)CC4)cc3)c2n1 [AXC-904, N-(2-(1-(4-((6-amino-2-butoxy-8-oxo-7,8-dihydro-9H-purin-9-yl)methyl)benzyl)piperidin-4-yl)ethyl)-4-(2-aminoethyl)benzamide]	–	8.09	pEC50 [2]: > 8.00
CCCCOc1nc(N)c2[nH]c(=O)n(Cc3ccc(CN4CCC(CCNC(=O)c5ccc(N)cc5)CC4)cc3)c2n1 [AXC-905, 4-amino-N-(2-(1-(4-((6-amino-2-butoxy-8-oxo-7,8-dihydro-9H-purin-9-yl)methyl)benzyl)piperidin-4-yl)ethyl)benzamide]	–	8.59	–
